Test results taken from ChEMBL document CHEMBL4004877, “Synthesis and biological evaluation of chalcone, dihydrochalcone, and 1,3-diarylpropane analogs as anti-inflammatory agents” (Bioorg Med Chem Lett, 2017).
Values after ≈ are worked out from the molar mass of the structure shown.

Legend:
[1] = Cytotoxicity against LPS-stimulated mouse RAW264.7 cells assessed as cell viability at 2.5 ug/ml after 24 hrs by MTT assay relative to control; assay type: cell-based; conditions: LPS-stimulated RAW264.7 cells, read-out: Activity
RAW264.7 [2] = assay: Antiinflammatory activity in mouse RAW264.7 cells assessed as inhibition of LPS induced iNOS-dependent nitric oxide production at 1.25 ug/ml after 24 hrs by Griess assay relative to control; assay type: functional; conditions: RAW264.7, 24 h
RAW264.7 [3] = assay: Antiinflammatory activity in mouse RAW264.7 cells assessed as inhibition of LPS induced iNOS-dependent nitric oxide production at 2.5 ug/ml after 24 hrs by Griess assay relative to control; assay type: functional; conditions: RAW264.7, 24 h
[4] = Cytotoxicity against LPS-stimulated mouse RAW264.7 cells assessed as cell viability at 5 ug/ml after 24 hrs by MTT assay relative to control; assay type: cell-based; conditions: LPS-stimulated RAW264.7 cells, read-out: Activity
[5] = Cytotoxicity against LPS-stimulated mouse RAW264.7 cells assessed as cell viability at 10 ug/ml after 24 hrs by MTT assay relative to control; assay type: cell-based; conditions: LPS-stimulated RAW264.7 cells, read-out: Activity
RAW264.7 [6] = assay: Antiinflammatory activity in mouse RAW264.7 cells assessed as inhibition of LPS induced iNOS-dependent nitric oxide production at 10 ug/ml after 24 hrs by Griess assay relative to control; assay type: functional; conditions: RAW264.7, 24 h
RAW264.7 [7] = assay: Antiinflammatory activity in mouse RAW264.7 cells assessed as inhibition of LPS induced iNOS-dependent nitric oxide production at 5 ug/ml after 24 hrs by Griess assay relative to control; assay type: functional; conditions: RAW264.7, 24 h
[8] = Cytotoxicity against LPS-stimulated mouse RAW264.7 cells assessed as cell viability at 1.25 ug/ml after 24 hrs by MTT assay relative to control; assay type: cell-based; conditions: LPS-stimulated RAW264.7 cells, read-out: Activity
RAW264.7 [9] = assay: Antiinflammatory activity in mouse RAW264.7 cells assessed as inhibition of LPS induced iNOS-dependent nitric oxide production after 24 hrs by Griess assay; assay type: functional, cell-based; conditions: RAW264.7, 24 h

Row | SMILES | IC50 (RAW264.7 [9]) | viability at 24 h, 2.5 ug/ml [1] | inhibition at 1.25 µg/mL (RAW264.7 [2]) | inhibition at 2.5 µg/mL (RAW264.7 [3]) | viability at 24 h, 5 ug/ml [4] | viability at 24 h, 10 ug/ml [5] | inhibition at 10 µg/mL (RAW264.7 [6]) | inhibition at 5 µg/mL (RAW264.7 [7]) | viability at 24 h, 1.25 ug/ml [8]
1 | O=C(/C=C/c1ccc2c(c1)OCO2)c1ccc(O)cc1 | 9.56 µg/mL (≈ 35.6 µM) | 95.2% | 4.9% | 1.1% | 88.5% | 68% | 52.5% | 14.1% | 99.2%
2 | COc1ccc(CCCc2cccc(O)c2)cc1 | 7.72 µg/mL (≈ 31.9 µM) | 99.2% | 22.2% | 20.5% | 94.1% | 76.2% | 55.9% | 40.1% | 99.9%
3 | COc1ccc(CCC(=O)c2cccc(O)c2)cc1 | > 10 µg/mL | 97.1% | 5.1% | 11% | 94.5% | 86.3% | 40.5% | 20.1% | 97.5%
4 | COc1ccc(C(=O)CCc2ccc3c(c2)OCO3)c(O)c1 | > 10 µg/mL | 96.8% | 5.1% | 10.6% | 96.2% | 94.4% | 25.9% | 14.1% | 99.8%
5 | O=C(CCc1ccc2c(c1)OCO2)c1ccc(O)cc1 | 8.72 µg/mL (≈ 32.3 µM) | 89% | 2% | 19.8% | 87.3% | 82.9% | 56.2% | 24.8% | 95.1%
6 | COc1ccc(CCC(=O)c2ccc(OC)c(OC)c2)cc1OC | > 10 µg/mL | 98% | 5.9% | 8.2% | 96.2% | 95.3% | 31.1% | 13.8% | 99.6%
7 | COc1ccc(/C=C/C(=O)c2cccc(O)c2)cc1OC | 8.38 µg/mL (≈ 29.5 µM) | 91% | 1.7% | 3.3% | 83.8% | 63.9% | 65.9% | 3.5% | 101%
8 | COc1cc(C(=O)CCc2cccc(OC)c2OC)ccc1O | > 10 µg/mL | 94.5% | 0.1% | 4.4% | 91.1% | 90.5% | 33.3% | 15.9% | 94.1%
9 | COc1ccc(/C=C/C(=O)c2ccc(OC)c(OC)c2)cc1O | > 10 µg/mL | 82.1% | 1.1% | 1.8% | 73% | 73.5% | 9.8% | 2.6% | 91.4%
10 | COc1ccc(C(=O)/C=C/c2ccc3c(c2)OCO3)c(OC)c1 | 2.43 µg/mL (≈ 7.78 µM) | 70.4% | 2.4% | 51.9% | 69.2% | 66.2% | 62.4% | 52% | 92.7%
11 | COc1ccc(/C=C/C(=O)c2ccc(OC)cc2O)cc1 | 4.73 µg/mL (≈ 16.6 µM) | 72.3% | 9.4% | 3.5% | 75.2% | 72.6% | 78.2% | 54% | 93.3%
12 | COc1cccc(CCC(=O)c2cccc(O)c2)c1OC | > 10 µg/mL | 94% | 7.5% | 14.1% | 93.4% | 91.4% | 47.5% | 25% | 96.4%
13 | COc1ccc(CCC(=O)c2ccc(O)c(OC)c2)cc1 | 9.81 µg/mL (≈ 34.3 µM) | 92% | 2.9% | 12.2% | 89.8% | 86.5% | 50.7% | 26.1% | 90%
14 | COc1ccc(CCC(=O)c2ccc(OC)cc2O)cc1 | > 10 µg/mL | 94.5% | 7.8% | 10.5% | 92.3% | 88% | 25.9% | 14.5% | 95.1%
15 | COc1ccc(CCC(=O)c2cccc(O)c2)cc1OC | 6.58 µg/mL (≈ 23 µM) | 98.9% | 5.4% | 18.6% | 98% | 97.9% | 55.8% | 46.2% | 101%
16 | COc1cccc(/C=C/C(=O)c2cccc(O)c2)c1OC | 4.83 µg/mL (≈ 17 µM) | 70.8% | 1.8% | 3% | 57.8% | 32.8% | 55.1% | 52.4% | 99.6%

Now from value to compound, other results behind:

Row | IC50 (RAW264.7 [9]) | SMILES | viability at 24 h, 2.5 ug/ml [1] | inhibition at 1.25 µg/mL (RAW264.7 [2]) | inhibition at 2.5 µg/mL (RAW264.7 [3]) | viability at 24 h, 5 ug/ml [4] | viability at 24 h, 10 ug/ml [5] | inhibition at 10 µg/mL (RAW264.7 [6]) | inhibition at 5 µg/mL (RAW264.7 [7]) | viability at 24 h, 1.25 ug/ml [8]
17 | > 10 µg/mL | COc1ccc(CCCc2cccc(O)c2)cc1OC | 98.5% | 13.9% | 5.4% | 94.8% | 78.8% | 44.7% | 15.4% | 99.9%
18 | 6.71 µg/mL (≈ 22.2 µM) | COc1ccc(CCCc2ccc(OC)cc2OC)c(O)c1 | 97.7% | 10.4% | 26.9% | 91.5% | 25.8% | 70% | 35.2% | 100%
19 | 9.9 µg/mL (≈ 32.7 µM) | COc1ccc(CCCc2cc(OC)ccc2OC)c(O)c1 | 102% | 6.2% | 31.7% | 98.5% | 42.5% | 50.2% | 36.4% | 102%
20 | > 10 µg/mL | COc1ccc(CCC(=O)c2ccc(OC)c(OC)c2)cc1O | 92.1% | 2.9% | 6.3% | 91.8% | 83.9% | 31% | 17.3% | 95.6%
21 | 9.42 µg/mL (≈ 32.9 µM) | COc1ccc(CCC(=O)c2cccc(O)c2)c(OC)c1 | 88.5% | 7.9% | 17.1% | 88.8% | 74.8% | 52.3% | 25.4% | 92.1%
22 | 6.92 µg/mL (≈ 25.4 µM) | COc1ccc(CCCc2cccc(O)c2)c(OC)c1 | 97% | 16.2% | 18% | 95.9% | 67.9% | 78.8% | 24.6% | 98.5%
23 | > 10 µg/mL | COc1ccc(C(=O)CCc2ccc(OC)c(OC)c2OC)c(O)c1 | 94.4% | 0.9% | 2.8% | 94.8% | 94% | 10.3% | 7.5% | 101%
24 | 4.03 µg/mL (≈ 12.1 µM) | COc1ccc(CCCc2ccc(OC)c(OC)c2OC)c(O)c1 | 95.5% | 33.3% | 34.9% | 84.5% | 36.7% | 68.1% | 56.8% | 96.3%
25 | > 10 µg/mL | COc1ccc(C(=O)/C=C/c2ccc(OC)cc2OC)c(O)c1 | 90.3% | 3.4% | 7.4% | 87.3% | 68% | 2.8% | 12.2% | 98.7%
26 | > 10 µg/mL | COc1ccc(C(=O)CCc2ccc(OC)cc2OC)c(O)c1 | 96.2% | 3% | 3.4% | 87.4% | 83.4% | 21.6% | 9% | 97.8%
27 | > 10 µg/mL | COc1ccc(C(=O)/C=C/c2cc(OC)ccc2OC)c(O)c1 | 93.3% | 7.4% | 0.7% | 71.1% | 66.5% | 26.6% | 6.1% | 95.4%
